Earlier results, collected in patent US10328111B2, “Water-soluble phytocannabinoid formulations” (Solva, LLC, priority 2014, dated 2019).

**Q.** For `C=C(C)[C@@H]1CCC(C)=C[C@H]1c1c(O)cc(CCCCC)cc1O` [cannabidiol], which oral bioavailability is on record?
**A.** Its oral bioavailability is “about 6%”.
